In one series the target is T1, HIV protease (Human immunodeficiency virus type 1 group M subtype B, UniProt P04585).
T1 construct: HIV protease is diluted in the assay buffer to a final enzyme concentration of 12.3 nanomolar, based on a molecular weight of 10,780
In words: biochemical. In kind it is biochemical. The settings on record: Table 21; above-described enzyme assay. On the procedure: The enzyme method is described below. […] The positive control is MVT-101 (Miller, M. et al, Science, 246, 1149 (1989)]. The assay conditions are as follows:
20 mM sodium phosphate, pH 6.4
The above described substrate is dissolved in DMSO, then diluted 10 fold in assay buffer. Final substrate concentration in the assay is 80 μM.
The final concentration of DMSO is 14% and the final concentration of glycerol is 18%. The test compound is dissolved in DMSO and diluted in DMSO to 10× the test concentration; 10 μl of the enzyme preparation is added, the materials mixed and then the mixture is incubated at ambient temperature for 15 minutes. The enzyme reaction is initiated by the addition of 40μl of substrate. The increase in fluorescence is monitored at 4 time points (0, 8, 16 and 24 minutes) at ambient temperature. Each assay is carried out in duplicate wells.

A further series is described as follows: in vitro. The settings on record: human. The source says:
(§1) Methods, 20, 309-321 (1988).
(§2) [table 42: the next 8 blocks are its lines as printed, fixed-width]

For another series, the system named is HIV-1 in CEM cells. In words: HIV inhibition assay of acutely infected CEM cells (tetrazolium/MTT colorimetric), antiviral efficacy. It counts as cell-based. The conditions noted are these: Human immunodeficiency virus 1, CCRF-CEM, 168 h.
Excerpt: as §1, §2

The structures appear in SMILES notation.

In the case of `CCCN(C[C@@H](O)[C@H](Cc1ccccc1)NC(=O)[C@H](CC(N)=O)NC(=O)OCc1ccccc1)S(=O)(=O)c1ccccc1` [Example 7], the half-inhibitory concentration (IC50) against HIV protease is 3 nM. In the series “in vitro” (cem cells), this compound had a CC50 at 168 h of 39 nM. This compound displayed an EC50 in the series with HIV-1 in CEM cells of 25 nM.
In the series “in vitro”, `COc1ccc(S(=O)(=O)N(CC(C)C)C[C@@H](O)[C@H](Cc2ccccc2)NC(=O)OCc2ccc[n+]([O-])c2)cc1` [Example 25] returned a half-maximal cytotoxic concentration (CC50) at 168 h of 167000 nM. The compound further came in with an EC50 in the series on HIV-1 in CEM cells of 120 nM.
On to `CC(C)CCN(C[C@@H](O)[C@H](Cc1ccccc1)NC(=O)[C@H](CC(N)=O)NC(=O)c1ccc2ccccc2n1)S(C)(=O)=O` [Example 4], for which, in “in vitro”, it took 28 nM to reach half-maximal cytotoxicity (CC50 at 168 h). Moreover, the midpoint of the response in the series on HIV-1 in CEM cells, the EC50, lay at 64 nM.
In “in vitro”, `COc1ccc(S(=O)(=O)N(CC(C)C)C[C@@H](O)[C@H](Cc2ccccc2)NC(=O)c2ccccc2)cc1` [Example 28] registered a CC50 at 168 h of 213000 nM. Moreover, the midpoint of the response in the series on HIV-1 in CEM cells, the EC50, lay at 76 nM.
In turn, `CC(C)CCN(C[C@@H](O)[C@H](Cc1ccccc1)NC(=O)[C@H](Cc1cnc[nH]1)NC(=O)c1ccc2ccccc2n1)S(=O)(=O)c1ccccc1` [Example 12] displayed a CC50 at 168 h in the series “in vitro” of 7.5 nM. Besides, the response in the series with HIV-1 in CEM cells was half-maximal at 12 nM (EC50).
For `COc1ccc(S(=O)(=O)N(CC(C)C)C[C@@H](O)[C@H](Cc2ccccc2)NC(=O)c2ccccc2Cl)cc1` [Example 30] the same measures were 154000 nM and 154 nM.
For `COc1ccc(COC(=O)NC[C@@H](C)C(=O)N[C@@H](Cc2ccccc2)[C@H](O)CN(CCC(C)C)S(=O)(=O)c2ccccc2)cc1` [Example 3] the same measures were 780 nM and 11 nM.
For `CC(C)CCN(C[C@@H](O)[C@H](Cc1ccccc1)NC(=O)[C@@H](NC(=O)CN(C)C)C(C)(C)C)S(=O)(=O)c1ccccc1` [Example 11] the same measures were 54 nM and 11 nM.
On to `CC(C)CCN(C[C@@H](O)[C@H](Cc1ccccc1)NC(=O)OCc1ccccc1)S(=O)(=O)c1ccccc1` [Example 1], for which the CC50 at 168 h in the series “in vitro” stood at 27 nM. Also, in the series on HIV-1 in CEM cells, the half-maximal effective concentration (EC50) was determined as 55 nM.
For `COc1ccc(S(=O)(=O)N(CC(C)C)C[C@@H](O)[C@H](Cc2ccccc2)NC(=O)c2c(C)cccc2C)cc1` [Example 32] the same measures were 17000 nM and 98 nM.
`COc1ccc(S(=O)(=O)N(CC(C)C)C[C@@H](O)[C@H](Cc2ccccc2)NC(=O)OCc2ccncc2)cc1` [Example 22] had a CC50 at 168 h in “in vitro” of 31000 nM. The same compound displayed an EC50 in the series on HIV-1 in CEM cells of 18 nM.
Compound `COc1ccc(S(=O)(=O)N(CC(C)C)C[C@@H](O)[C@H](Cc2ccccc2)NC(=O)OC(C)(C)C)cc1` [Example 27] had a CC50 at 168 h in “in vitro” (cem cells) of 300000 nM. In the series with HIV-1 in CEM cells, this compound had an EC50 of 177 nM.
Compound `CC(C)CN(C[C@@H](O)[C@H](Cc1ccccc1)NC(=O)OCc1cccnc1)S(=O)(=O)c1ccccc1` [Example 16] showed a CC50 at 168 h in “in vitro” of 62000 nM. This compound also returned an EC50 in the series with HIV-1 in CEM cells of 80 nM.
